Results as given in PubChem BioAssay (NCI).
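Protocol summary: plate cells (96-well), add compound at 5 concentrations, incubate 48 h, interpolate endpoints linearly. TGI denotes the concentration required for complete inhibition of growth.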

Legend:
Assay in all cases: DTP human tumour cell line panel, 48 h
K-562 leukemia = test system: K-562 leukemia
LOX IMVI melanoma = test system: LOX IMVI melanoma
COLO 205 colon = test system: COLO 205 colon
SW-620 colon = test system: SW-620 colon
SF-539 CNS = test system: SF-539 CNS
BT-549 breast = test system: BT-549 breast
786-0 renal = test system: 786-0 renal
NCI/ADR-RES ovarian = test system: NCI/ADR-RES ovarian
SK-MEL-5 melanoma = test system: SK-MEL-5 melanoma
NCI-H23 lung = test system: NCI-H23 lung
NCI-H460 lung = test system: NCI-H460 lung
HOP-92 NSCLC = test system: HOP-92 NSCLC
HCT-116 colon = test system: HCT-116 colon
HCC-2998 colon = test system: HCC-2998 colon
UACC-257 melanoma = test system: UACC-257 melanoma
IGROV1 ovarian = test system: IGROV1 ovarian
PC-3 prostate = test system: PC-3 prostate
A498 renal = test system: A498 renal
M14 melanoma = test system: M14 melanoma
SNB-75 CNS = test system: SNB-75 CNS
MDA-MB-231 breast = test system: MDA-MB-231 breast
NCI-H226 lung = test system: NCI-H226 lung
HCT-15 colon = test system: HCT-15 colon
MCF7 breast = test system: MCF7 breast
SK-MEL-28 melanoma = test system: SK-MEL-28 melanoma
SF-295 CNS = test system: SF-295 CNS
HT29 colon = test system: HT29 colon
DU-145 prostate = test system: DU-145 prostate
TK-10 renal = test system: TK-10 renal
RXF 393 renal = test system: RXF 393 renal
UO-31 renal = test system: UO-31 renal
SR leukemia = test system: SR leukemia
SN12C renal = test system: SN12C renal
T-47D breast = test system: T-47D breast
CAKI-1 renal = test system: CAKI-1 renal
MDA-N = test system: MDA-N
SK-OV-3 ovarian = test system: SK-OV-3 ovarian
OVCAR-4 ovarian = test system: OVCAR-4 ovarian
OVCAR-5 ovarian = test system: OVCAR-5 ovarian
UACC-62 melanoma = test system: UACC-62 melanoma
NCI-H522 lung = test system: NCI-H522 lung
RPMI-8226 leukemia = test system: RPMI-8226 leukemia
SNB-19 CNS = test system: SNB-19 CNS
OVCAR-3 ovarian = test system: OVCAR-3 ovarian
U251 CNS = test system: U251 CNS
SK-MEL-2 melanoma = test system: SK-MEL-2 melanoma
ACHN renal = test system: ACHN renal
A549 NSCLC = test system: A549 NSCLC
KM12 colon = test system: KM12 colon
HOP-62 NSCLC = test system: HOP-62 NSCLC
HS 578T breast = test system: HS 578T breast
EKVX NSCLC = test system: EKVX NSCLC
MALME-3M melanoma = test system: MALME-3M melanoma
SF-268 CNS = test system: SF-268 CNS
MDA-MB-435 = test system: MDA-MB-435
OVCAR-8 ovarian = test system: OVCAR-8 ovarian
HL-60(TB) leukemia = test system: HL-60(TB) leukemia

`O=C(O)CCc1nc(-c2ccccc2-n2cccc2)no1` was tested, and the TGI (K-562 leukemia) was > 100 µM, the TGI (LOX IMVI melanoma) was > 100 µM and the TGI (COLO 205 colon) was > 100 µM. For the same compound, the TGI (SW-620 colon) was > 100 µM, the TGI (SF-539 CNS) was > 100 µM and the TGI (BT-549 breast) was > 100 µM. The TGI (786-0 renal) was > 100 µM, the TGI (NCI/ADR-RES ovarian) was > 100 µM and the TGI (SK-MEL-5 melanoma) was > 100 µM. For the same compound, the TGI (NCI-H23 lung) was > 100 µM, the TGI (NCI-H460 lung) was > 100 µM and the TGI (HOP-92 NSCLC) was > 100 µM. The TGI (HCT-116 colon) was > 100 µM, the TGI (HCC-2998 colon) was > 100 µM and the TGI (UACC-257 melanoma) was > 100 µM. For the same compound, the TGI (IGROV1 ovarian) was > 100 µM, the TGI (PC-3 prostate) was > 100 µM and the TGI (A498 renal) was > 100 µM. The TGI (M14 melanoma) was > 100 µM, the TGI (SNB-75 CNS) was > 100 µM and the TGI (MDA-MB-231 breast) was > 100 µM. For the same compound, the TGI (NCI-H226 lung) was > 100 µM, the TGI (HCT-15 colon) was > 100 µM and the TGI (MCF7 breast) was > 100 µM. The TGI (SK-MEL-28 melanoma) was > 100 µM, the TGI (SF-295 CNS) was > 100 µM and the TGI (HT29 colon) was > 100 µM. For the same compound, the TGI (DU-145 prostate) was > 100 µM, the TGI (TK-10 renal) was > 100 µM and the TGI (RXF 393 renal) was > 100 µM. The TGI (UO-31 renal) was > 100 µM, the TGI (SR leukemia) was > 100 µM and the TGI (SN12C renal) was > 100 µM. For the same compound, the TGI (T-47D breast) was > 100 µM, the TGI (CAKI-1 renal) was > 100 µM and the TGI (MDA-N) was > 100 µM. For the same compound, the TGI (SK-OV-3 ovarian) was > 100 µM, the TGI (OVCAR-4 ovarian) was > 100 µM and the TGI (OVCAR-5 ovarian) was > 100 µM. The TGI (UACC-62 melanoma) was > 100 µM, the TGI (NCI-H522 lung) was > 100 µM and the TGI (RPMI-8226 leukemia) was > 100 µM. The TGI (SNB-19 CNS) was > 100 µM, the TGI (OVCAR-3 ovarian) was 86.3 µM and the TGI (U251 CNS) was > 100 µM. The TGI (SK-MEL-2 melanoma) was > 100 µM, the TGI (ACHN renal) was > 100 µM and the TGI (A549 NSCLC) was > 100 µM. The TGI (KM12 colon) was > 100 µM, the TGI (HOP-62 NSCLC) was > 100 µM and the TGI (HS 578T breast) was > 100 µM. For the same compound, the TGI (EKVX NSCLC) was > 100 µM, the TGI (MALME-3M melanoma) was > 100 µM and the TGI (SF-268 CNS) was > 100 µM. For the same compound, the TGI (MDA-MB-435) was 46.3 µM and the TGI (OVCAR-8 ovarian) was > 100 µM.
`Cc1cc2ccc(N)nc2[nH]c1=O` was tested, and the TGI (COLO 205 colon) was > 100 µM, the TGI (SW-620 colon) was > 100 µM and the TGI (SF-539 CNS) was > 100 µM. The TGI (BT-549 breast) was > 100 µM, the TGI (786-0 renal) was > 100 µM and the TGI (NCI/ADR-RES ovarian) was > 100 µM. The TGI (SK-MEL-5 melanoma) was > 100 µM, the TGI (NCI-H23 lung) was > 100 µM and the TGI (NCI-H460 lung) was > 100 µM. For the same compound, the TGI (HOP-92 NSCLC) was > 100 µM, the TGI (HCT-116 colon) was > 100 µM and the TGI (UACC-257 melanoma) was > 100 µM. For the same compound, the TGI (IGROV1 ovarian) was > 100 µM, the TGI (PC-3 prostate) was > 100 µM and the TGI (M14 melanoma) was > 100 µM. The TGI (SNB-75 CNS) was > 100 µM, the TGI (MDA-MB-231 breast) was > 100 µM and the TGI (NCI-H226 lung) was > 100 µM. The TGI (HCT-15 colon) was > 100 µM, the TGI (MCF7 breast) was > 100 µM and the TGI (SF-295 CNS) was > 100 µM. For the same compound, the TGI (HT29 colon) was > 100 µM, the TGI (DU-145 prostate) was > 100 µM and the TGI (TK-10 renal) was > 100 µM. For the same compound, the TGI (RXF 393 renal) was > 100 µM, the TGI (UO-31 renal) was > 100 µM and the TGI (SR leukemia) was > 100 µM. The TGI (SN12C renal) was > 100 µM, the TGI (T-47D breast) was > 100 µM and the TGI (CAKI-1 renal) was > 100 µM. For the same compound, the TGI (MDA-N) was > 100 µM, the TGI (SK-OV-3 ovarian) was > 100 µM and the TGI (OVCAR-5 ovarian) was > 100 µM. For the same compound, the TGI (UACC-62 melanoma) was > 100 µM, the TGI (NCI-H522 lung) was > 100 µM and the TGI (HL-60(TB) leukemia) was > 100 µM. The TGI (RPMI-8226 leukemia) was > 100 µM, the TGI (SNB-19 CNS) was > 100 µM and the TGI (U251 CNS) was > 100 µM. For the same compound, the TGI (SK-MEL-2 melanoma) was > 100 µM, the TGI (ACHN renal) was > 100 µM and the TGI (A549 NSCLC) was > 100 µM. The TGI (KM12 colon) was > 100 µM, the TGI (HS 578T breast) was > 100 µM and the TGI (EKVX NSCLC) was > 100 µM. For the same compound, the TGI (MALME-3M melanoma) was > 100 µM, the TGI (SF-268 CNS) was > 100 µM and the TGI (MDA-MB-435) was > 100 µM. For the same compound, the TGI (OVCAR-8 ovarian) was > 100 µM.
